Reference: US7109193B2, “Tricyclic diazepines tocolytic oxytocin receptor antagonists” (Wyeth, priority 2001, dated 2006)

Target: T1, human vasopressin V1a receptor subtype (Homo sapiens, UniProt P37288)
T1 construct: host or cells: CHO cells (pZeoSV vector for the Thibonnier line)
Assay: Vasopressin binding in Chinese Hamster Ovary cell membranes expressing human vasopressin V1a subtype receptors
Conditions: 100 nM, CHO cell membranes, [3H]Manning ligand, values without parentheses
Method in brief: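 Membranes from CHO cells expressing human V1a receptor were incubated with [3H]Manning ligand (added as 20 μL of 8 nM) in pH 7.4 Tris buffer with MgCl2, BSA and protease inhibitors, 60 min at room temperature. Bound radioactivity was counted after filtration; values are percent inhibition at a stated concentration or IC50.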

T1 sequence (P37288 whole entry): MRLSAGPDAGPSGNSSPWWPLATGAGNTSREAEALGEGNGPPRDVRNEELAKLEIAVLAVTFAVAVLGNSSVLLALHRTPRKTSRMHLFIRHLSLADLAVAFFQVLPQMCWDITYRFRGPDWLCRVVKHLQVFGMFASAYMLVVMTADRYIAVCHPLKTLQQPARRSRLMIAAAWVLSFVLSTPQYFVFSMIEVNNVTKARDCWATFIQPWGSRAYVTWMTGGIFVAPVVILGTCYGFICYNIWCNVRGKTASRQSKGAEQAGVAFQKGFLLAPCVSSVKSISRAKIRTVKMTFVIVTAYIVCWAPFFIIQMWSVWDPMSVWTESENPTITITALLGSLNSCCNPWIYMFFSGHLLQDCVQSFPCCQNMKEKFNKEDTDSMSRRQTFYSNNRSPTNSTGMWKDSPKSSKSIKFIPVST

inhibition at 0.1 µM [%]	Structure (SMILES)	V1a % inhibition @ 100 nM [%]
16	Cc1ccccc1-c1ccc(C(=O)N2Cc3ccc(C(=O)NCCCn4ccnc4)n3Cc3ccccc32)cc1C [Example 124, 10-[(2,2′-Dimethyl[1,1′-biphenyl]-4-yl)carbonyl]-N-[3-(1H-imidazol-1-yl)propyl]-10,11-dihydro-5H-pyrrolo[2,1-c][1,4]benzodiazepine-3-carboxamide]	–
3	O=C(c1ccc2n1Cc1ccccc1N(C(=O)c1ccc(-c3cccc4ccccc34)cc1Cl)C2)N1CCC(N2CCCC2)CC1 [Example 147, {10-[2-Chloro-4-(1-naphthyl)benzoyl]-10,11-dihydro-5H-pyrrolo[2,1-c][1,4]benzodiazepin-3-yl}[4-(1-pyrrolidinyl)-1-piperidinyl]methanone]	–
9	COc1ccccc1-c1ccc(C(=O)N2Cc3ccc(C(=O)N4CCC(N5CCCCC5)CC4)n3Cc3ccccc32)cc1OC [Example 119, {10-[(2,2′-Dimethoxy-[1,1′-biphenyl]-4-yl)carbonyl]-10,11-dihydro-5H-pyrrolo[2,1-c][1,4]benzodiazepin-3-yl}[4-(1-piperidinyl)-1-piperidinyl]methanone]	–
11	COc1cccc(-c2ccc(C(=O)N3Cc4ccc(C(=O)N5CCC(N6CCCCC6)CC5)n4Cc4ccccc43)cc2C)c1 [Example 114, {10-[(2-Methyl-3′-methoxy[1,1′-biphenyl]-4-yl)carbonyl]-10,11-dihydro-5H-pyrrolo[2,1-c][1,4]benzodiazepin-3-yl}[4-(1-piperidinyl)-1-piperidinyl]methanone]	–
9	COc1cccc(-c2ccc(C(=O)N3Cc4ccc(C(=O)N5CCC(N6CCCC6)CC5)n4Cc4ccccc43)cc2C)c1 [Example 139, {10-[(3′-Methoxy-2-methyl[1,1′-biphenyl]-4-yl)carbonyl]-10,11-dihydro-5H-pyrrolo[2,1-c][1,4]benzodiazepin-3-yl}[4-(1-pyrrolidinyl)-1-piperidinyl]methanone]	–
–	COc1cc(C(=O)N2Cc3ccc(C(=O)N4CCC[C@H]4CN4CCCC4)n3Cc3ccccc32)ccc1-c1cccc2ccccc12 [Example 262, {10-[3-Methoxy-4-(1-naphthyl)benzoyl]-10,11-dihydro-5H-pyrrolo[2,1-c][1,4]benzodiazepin-3-yl}[(2S)-2-(1-pyrrolidinylmethyl)pyrrolidinyl]methanone]	8
20	COc1cccc(-c2ccc(C(=O)N3Cc4ccc(C(=O)NCCCn5ccnc5)n4Cc4ccccc43)cc2OC)c1 [Example 133, 10-[(2,3′-Dimethoxy[1,1′-biphenyl]4-yl)carbonyl]-N-[3-(1H-imidazol-1-yl)propyl]-10,11-dihydro-5H-pyrrolo[2,1-c][1,4]benzodiazepine-3-carboxamide]	–
–	Cc1ccccc1-c1ccc(C(=O)N2Cc3ccc(C(=O)N4CC[C@@H](N(C)C)C4)n3Cc3ccccc32)cc1C [Example 274, [(3R)-3-(Dimethylamino)pyrrolidinyl]{10-[(2,2′-dimethyl[1,1′-biphenyl]-4-yl)carbonyl]-10,11-dihydro-5H-pyrrolo[2,1-c][1,4]benzodiazepin-3-yl}methanone]	90
–	O=C(c1ccc2n1Cc1ccccc1N(C(=O)c1ccc(-c3cccc4ccccc34)cc1Cl)C2)N1CCC(N2CCCCC2)CC1 [Example 121]	0
–	COc1cccc(-c2cc(OC)c(C(=O)N3Cc4ccc(C(=O)N5CCN(CCN6CCOCC6)CC5)n4Cc4ccccc43)cc2Cl)c1 [Example 212, {10-[(6-Chloro-3,3′-dimethoxy[1,1′-biphenyl]-4-yl)carbonyl]-10,11-dihydro-5H-pyrrolo[2,1-c][1,4]benzodiazepin-3-yl}{4-[2-(4-morpholinyl)ethyl]-1-piperazinyi}methanone]	35
–	CN(C)[C@@H]1CCN(C(=O)c2ccc3n2Cc2ccccc2N(C(=O)c2ccc(-c4cccc5ccccc45)cc2Cl)C3)C1 [Example 277, {10-[2-Chloro-4-(1-naphthyl)benzoyl]-10,11-dihydro-5H-pyrrolo[2,1-c][1,4]benzodiazepin-3-yl}[(3R)-3-(dimethylamino)pyrrolidinyl]methanone]	8
9	COc1ccccc1-c1ccc(C(=O)N2Cc3ccc(C(=O)NCCCn4ccnc4)n3Cc3ccccc32)cc1 [Example 126, N-[3-(1H-Imidazol-1-yl)propyl]-10-[(2′-methoxy[1,1′-biphenyl]-4-yl)carbonyl]-10,11-dihydro-5H-pyrrolo[2,1-c][1,4]benzodiazepine-3-carboxamide]	–
2	COc1ccccc1-c1ccc(C(=O)N2Cc3ccc(C(=O)NCCCn4ccnc4)n3Cc3ccccc32)cc1OC [Example 132, 10-[(2,2′-Dimethoxy[1,1′-biphenyl]-4-yl)carbonyl]-N-[3-(1H-imidazol-1-yl)propyl]-10,11-dihydro-5H-pyrrolo[2,1-c][1,4]benzodiazepine-3-carboxamide]	–
-1	COc1cc(C(=O)N2Cc3ccc(C(=O)N4CCC(N5CCCC5)CC4)n3Cc3ccccc32)ccc1-c1cccc2ccccc12 [Example 144, {10-[3-Methoxy-4-(1-naphthyl)benzoyl]-10,11-dihydro-5H-pyrrolo[2,1-c][1,4]benzodiazepin-3-yl}[4-(1-pyrrolidinyl)-1-piperidinyl]methanone]	–
24	COc1ccccc1-c1ccc(C(=O)N2Cc3ccc(C(=O)N4CCC(N5CCCC5)CC4)n3Cc3ccccc32)cc1 [Example 140, {10-[(2′-Methoxy[1,1′-biphenyl]-4-yl)carbonyl]-10,11-dihydro-5H-pyrrolo[2,1-c][1,4]benzodiazepin-3-yl}[4-(1-pyrrolidinyl)-1-piperidinyl]methanone]	–
8	COc1ccccc1-c1ccc(C(=O)N2Cc3ccc(C(=O)N4CCC(N5CCCCC5)CC4)n3Cc3ccccc32)cc1C [Example 112, {10-[(2-Methyl-2′-methoxy[1,1′-biphenyl]-4-yl)carbonyl]-10,11-dihydro-5H-pyrrolo[2,1-c][1,4]benzodiazepin-3-yl}[4-(1-piperidinyl)-1-piperidinyl]methanone]	–
0	COc1cc(-c2ccccc2C)c(Cl)cc1C(=O)N1Cc2ccc(C(=O)NCCN3CCCCC3)n2Cc2ccccc21 [Example 155, 10-[(6-Chloro-3-methoxy-2′-methyl[1,1′-biphenyl]-4-yl)carbonyl]-N-[2-(1-piperidinyl)ethyl]-10,11-dihydro-5H-pyrrolo[2,1-c][1,4]benzodiazepine-3-carboxamide]	–
42	COc1cc(C(=O)N2Cc3ccc(C(=O)N4CCC(N5CCCCC5)CC4)n3Cc3ccccc32)ccc1-c1ccccc1C [Example 116, {10-[(2-Methoxy-2′-methyl[1,1′-biphenyl]-4-yl)carbonyl]-10,11-dihydro-5H-pyrrolo[2,1-c][1,4]benzodiazepin-3-yl}[4-(1-piperidinyl)-1-piperidinyl]methanone]	–
20	COc1cccc(-c2ccc(C(=O)N3Cc4ccc(C(=O)N5CCC(N6CCCCC6)CC5)n4Cc4ccccc43)cc2OC)c1 [Example 120, {10-[(2,3′-Dimethoxy-[1,1′-biphenyl]-4-yl)carbonyl]-10,11-dihydro-5H-pyrrolo[2,1-c][1,4]benzodiazepin-3-yl}[4-(1-piperidinyl)-1-piperidinyl]methanone]	–
–	COc1cc2c(cc1OC)N(C(=O)c1ccc(-c3ccccc3C(F)(F)F)c(C)c1)Cc1ccc(C(=O)N(C)CCCN(C)C)n1C2.Cl [Example 13, N-Methyl-[N-(3-dimethylamino)propyl]-7,8-dimethoxy-10-{[2-methyl-2′-(trifluoromethyl)[1,1′-biphenyl]-4-yl]carbonyl}-10,11-dihydro-5H-pyrrolo[2,1-c][1,4]benzodiazepine-3-carboxamide hydrochloride salt]	4
–	Cc1cc(C(=O)N2Cc3ccc(C(=O)NCCCN(C)C)n3Cc3ccccc32)ccc1-c1ccccc1C(F)(F)F [Example 84, N-[3-(Dimethylamino)propyl]-10-{[2-methyl-2′-(trifluoromethyl)[1,1′-biphenyl]-4-yl]carbonyl}-10,11-dihydro-5H-pyrrolo[2,1-c][1 .4]benzodiazepine-3-carboxamide]	1
–	COc1cc(C(=O)N2Cc3ccc(C(=O)N4CC[C@@H](N(C)C)C4)n3Cc3ccccc32)ccc1-c1ccccc1C [Example 281, [(3R)-3-(Dimethylamino)pyrrolidinyl]{10-[(2-methoxy-2′-methyl[1,1′-biphenyl]-4-yl)carbonyl]-10,11-dihydro-5H-pyrrolo[2,1-c][1,4]benzodiazepin-3-yl}methanone]	58
-9	Cc1cc(C(=O)N2Cc3ccc(C(=O)N4CCC(N5CCCC5)CC4)n3Cc3ccccc32)ccc1-c1ccccc1C(F)(F)F [Example 148, (10-{[2-Methyl-2′-(trifluoromethyl)[1,1′-biphenyl]-4-yl]carbonyl}-10,11-dihydro-5H-pyrrolo[2,1-c][1,4]benzodiazepin-3-yl)[4-(1-pyrrolidinyl)-1-piperidinyl]methanone]	–
37	COc1cccc(-c2ccc(C(=O)N3Cc4ccc(C(=O)N5CCC(N6CCCC6)CC5)n4Cc4ccccc43)cc2OC)c1 [Example 146, {10-[(2,3′-Dimethoxy[1,1′-biphenyl]-4-yl)carbonyl]-10,11-dihydro-5H-pyrrolo[2,1-c][1,4]benzodiazepin-3-yl}[4-(1-pyrrolidinyl)-1-piperidinyl]methanone]	–
